Laboratory results taken from US6610502B1, “Compound 2-amino-3-[2-(α-mannopyranosyl)indol-3-yl]propionic acid, process for preparing the same, and method for inspecting function of living body with the novel compound” (Kyowa Medex Co., Ltd., priority 1997, dated 2003).
Values joined by “and” are separate entries in the source; they are usually repeats but may differ in a detail not shown here. Equal entries are not always repeated.

Assay: GFR assay: the present compound in urine and sera by enzyme immunoassay, clearance (Example 8)
Format: in vivo, human
Description: Enzyme immunoassay was performed using the antibody prepared in Example 6. First, 50 μl of 2-amino-3-[2-(α-D-mannopyranosyl)indole-3-yl]propionic acid-BSA conjugate solution (20 μg/ml 0.1M carbonate buffer, pH9.5) was dispensed into a 96-well microtiter plate (NUNC. Corp.) and left to stand at 4° C. overnight. After washing the plate three times with PBS, 250 μl of 1% BSA/PBS solution was dispensed into the plate and left to stand at room temperature for 1 hour. Then, the plate was washed three times with PBS to be used as a reaction plate. Next, 50 μl of a test sample diluted with 0.1M phosphate buffer (pH 7.4) supplemented with varied concentrations of 2-amino-3-[2-(α-D-mannopyranosyl)indole-3-yl]propionic acid/0.1%BSA or 0.1M phosphate buffer supplemented with 0.1% BSA (pH7.4) was dispensed into the reaction plate into which 50 μl of the monoclonal antibody prepared in Example 6 (10 ng/ml, 0.1M phosphate buffer solution supplemented with 0.1% BSA, pH7.4) was added while stirring. The mixture was allowed to react at room temperature for 3 hours. Then, after the reaction was completed, the plate was washed five times with PBS containing 0.05% Tween 20, and then 50 μl of POD labeled-anti-mouse immunoglobulins-rabbit IgG (DAKO) was added to the plate for reaction at room temperature for 1 hour. After the reaction, the plate was washed five times with PBS containing 0.05% Tween 20, added with 50 μl of MCDP/50 mM citrate buffer solution (pH5.0), and the mixture was allowed to react at room temperature for 30 minutes. Finally, 50 μl of a reaction stopper (ethyl diethyldithiocarbamate) was added to the plate, and absorbance was then determined at 660 nm by a microplate reader. The calibration curve is shown in FIG. 5 in which the concentration of 2-amino-3-[2-(α-D-mannopyranosyl)indole-3-yl]propionic acid was indicated as a concentration of single compound.
Eighteen patients with non-renal disease were assayed for the levels of 2-amino-3-[2-(α-mannopyranosyl)indole-3-yl]propionic acid in their urine and sera as described in Example 7. Urine samples stored for 24 hours were used. Volumes of those samples were determined and then partially stored at −80° C. until assay. Upon use, the frozen urine samples were thawed at 37° C. and kept warm. Subsequently, after sufficient stirring and mixing, the samples were centrifuged at 3000 rpm for 10 minutes to remove impurities. The resultant supernatants were used as samples. Serum samples were collected from the patients' blood, left to stand at room temperature for 30 minutes for coagulation, and centrifuged to collect sera which were stored at −80° C. until use.
Clearance View=(level in urine×urine volume)/(24×60×serum level)

SMILES: NC(Cc1c([C@H]2O[C@H](CO)[C@@H](O)[C@H](O)[C@@H]2O)[nH]c2ccccc12)C(=O)O (stereo partly drawn) [the present compound, 2-amino-3-[2-(α-mannopyranosyl)indole-3-yl]propionic acid]
- clearance (ml/min) the present compound (Average of 18 subjects): 68.40 mL/min
- the present compound in serum (Average of 18 subjects): 0.24 nmol/mL
- the present compound in urine (Average of 18 subjects): 14.87 nmol/mL
- the present compound in serum (individual subjects 1-18, patients with non-renal disease): 0.240 nmol/ml (2×) and 0.193 nmol/ml (3×) and 0.166 nmol/ml and 0.280 nmol/ml and 0.200 nmol/ml and 0.319 nmol/ml (3×) and 0.279 nmol/ml (2×) and 0.186 nmol/ml and 0.309 nmol/ml and 0.213 nmol/ml and 0.226 nmol/ml and 0.159 nmol/ml
- the present compound in urine (individual subjects 1-18, urine stored for 24 hours): 11.677 nmol/mL and 7.195 nmol/mL and 4.242 nmol/mL and 14.862 nmol/mL and 19.188 nmol/mL and 7.595 nmol/mL and 10.649 nmol/mL and 14.349 nmol/mL and 13.645 nmol/mL and 27.103 nmol/mL and 16.348 nmol/mL and 12.726 nmol/mL and 11.931 nmol/mL and 26.935 nmol/mL and 15.040 nmol/mL and 12.989 nmol/mL and 33.653 nmol/mL and 7.573 nmol/mL
- clearance (ml/min) the present compound (individual subjects 1-18, (level in urine×urine volume)/(24×60×serum level)): 64.2 mL/min and 54.2 mL/min and 58.1 mL/min and 80.8 mL/min and 64.3 mL/min and 53.0 mL/min and 72.3 mL/min and 60.7 mL/min and 91.7 mL/min and 56.1 mL/min and 89.1 mL/min and 61.9 mL/min and 89.2 mL/min and 77.6 mL/min and 67.7 mL/min and 65.3 mL/min and 52.8 mL/min
